In patent US12228580B2, “Methods of assigning a COVID pathological type based on a cytokine/chemokine panel” (IncellDx, Inc., priority 2020, dated 2025):

Legend:
[1] = system: plasma cytokines/chemokines of Chronic COVID patients; experiment: 14-plex cytokine/chemokine panel in plasma and long hauler index (S1) of treated Chronic COVID patients; format: in vivo, human; settings: 300 mg twice a day for 2 weeks; for S1 (long haul index, LHI; (IFN-gamma+IL-2)/CCL4-MIP-1β): Normals 0.1
Description: Fresh plasma was used for cytokine quantification using a customized 14-plex bead based flow cytometric assay (IncelIKINE, IncellDx, Inc) on a CytoFlex flow cytometer as previously described using the following analytes: ‘TNF-α’, ‘IL-4’, ‘IL-13’, ‘IL-2’, ‘GM-CSF’, ‘sCD40L’, ‘CCL5 (RANTES)’, ‘CCL3 (MIP-1α)’, ‘IL-6’, ‘IL-10’, ‘IFN-γ’, ‘VEGF’, ‘IL-8’, and ‘CCL4 (MIP-1β) (Patterson et al., “CCR5 inhibition in Critical COVID-19 Patients Decreases Inflammatory Cytokines, Increases CD8 T-Cells, and Decreases SARS-CoV2 RNA in Plasma by Day 14”, Int J Infect Dis (2020) doi: 10.1016/j.ijid.2020.10.101). For each patient sample, 25 μL of plasma was used in each well of a 96-well plate. Standard curves with serial 6-point dilutions of antigen were run on each plate for each cytokine. Raw data was analyzed using LegendPlex software (Biolegend, Inc San Diego Calif.). Samples were run in duplicate.
(§1) Long Hauler patients suffering from chronic COVID-19 were treated for 2 weeks with 300 mg of Maraviroc (SELZENTRY®) twice a day. […] The results are provided below, which provide patient profiles and LHI (long haul index) as determined using the panel described in the preceding example. LHI is also referred to as “Long Hauler Score” or S1, where S1=(IFN-gamma+IL-2)/CCL4-MIP-1β.

[2] = system: Long Hauler patients suffering from chronic COVID-19; experiment: Treatment of Long Hauler patients for chronic COVID-19: symptoms; format: in vivo, human; settings: 300 mg twice a day for 2 weeks
Protocol: as §1

**Q.** For Maraviroc, which “CCL5/RANTES in Chronic COVID patients successfully treated” value ([1]; Chronic COVID patients) is on record?
**A.** Decreased CCL5/RANTES in Chronic COVID patients successfully treated

**Q.** And the “long hauler Indices (LHI, S1)” value ([1]; Long Hauler patients)?
**A.** reduced

**Q.** What about the “S1 (long haul index, LHI; (IFN-gamma+IL-2)/CCL4-MIP-1β)” value ([1]; patient two, second sample (AB2), first sample AB1 4.0) of the same substance?
**A.** 0.3

**Q.** And the GM-CSF ([1]; patient two, second sample (AB2), first sample AB1 6.02)?
**A.** 15.09 pg/mL

**Q.** And the TNF-α ([1]; patient two, second sample (AB2), first sample AB1 7.75)?
**A.** 17.13 pg/mL

**Q.** And the IL-10 ([1]; patient two, second sample (AB2), first sample AB1 7.90)?
**A.** <0.61 pg/mL

**Q.** And the IL-6 ([1]; patient two, second sample (AB2), first sample AB1 10.88)?
**A.** <0.6 pg/mL

**Q.** What about the IL-4 ([1]; patient two, second sample (AB2), first sample AB1 11.06) of the same substance?
**A.** 4.12 pg/mL

**Q.** What about the IL-2 ([1]; patient two, second sample (AB2), first sample AB1 12.57) of the same substance?
**A.** 2.15 pg/mL

**Q.** And the “CCL4 (MIP-1β)” value ([1]; patient two, second sample (AB2), first sample AB1 15.52)?
**A.** 8.43 pg/mL

**Q.** What about the IFN-γ ([1]; patient two, second sample (AB2), first sample AB1 48.78) of the same substance?
**A.** <0.92 pg/mL

**Q.** What about the VEGF ([1]; patient two, second sample (AB2), first sample AB1 60.41) of the same substance?
**A.** 22.98 pg/mL

**Q.** What about the “CCL3 (MIP-1α)” value ([1]; patient two, second sample (AB2), first sample AB1 87.65) of the same substance?
**A.** <1.22 pg/mL

**Q.** And the “CCL5 (RANTES)” value ([1]; patient two, second sample (AB2), first sample AB1 13082.39)?
**A.** 12261.36 pg/mL

**Q.** What about the sCD40L ([1]; patient two, second sample (AB2), first sample AB1 13488.) of the same substance?
**A.** 12631. pg/ml

**Q.** What about the IL-13 ([1]; patient two, second sample (AB2), first sample AB1 <3.07) of the same substance?
**A.** 4.35 pg/mL

**Q.** And the IL-8 ([1]; patient two, second sample (AB2), first sample AB1 <15.74)?
**A.** 18.37 pg/mL

**Q.** What about the “CCL4 (MIP-1β)” value ([1]; unlabelled patient, second line, first line 3.62) of the same substance?
**A.** 9.79 pg/mL

**Q.** What about the IL-13 ([1]; unlabelled patient, second line, first line 5.56) of the same substance?
**A.** 4.22 pg/mL

**Q.** And the GM-CSF ([1]; unlabelled patient, second line, first line 10.40)?
**A.** 9.07 pg/mL

**Q.** What about the “S1 (long haul index, LHI; (IFN-gamma+IL-2)/CCL4-MIP-1β)” value ([1]; unlabelled patient, second line, first line 11.4) of the same substance?
**A.** 1.3

**Q.** What about the TNF-α ([1]; unlabelled patient, second line, first line 17.86) of the same substance?
**A.** 17.50 pg/mL

**Q.** What about the IL-2 ([1]; unlabelled patient, second line, first line 33.94) of the same substance?
**A.** 4.89 pg/mL

**Q.** What about the VEGF ([1]; unlabelled patient, second line, first line 39.00) of the same substance?
**A.** 31.62 pg/mL

**Q.** And the sCD40L ([1]; unlabelled patient, second line, first line 8980.)?
**A.** 41374. pg/ml

**Q.** What about the “CCL5 (RANTES)” value ([1]; unlabelled patient, second line, first line 14334.86) of the same substance?
**A.** 10011.91 pg/mL

**Q.** What about the IL-10 ([1]; unlabelled patient, second line, first line <1.20) of the same substance?
**A.** <2.49 pg/mL

**Q.** What about the IL-8 ([1]; unlabelled patient, second line, first line <3.82) of the same substance?
**A.** <9.98 pg/mL

**Q.** What about the IL-6 ([1]; unlabelled patient, second line, first line <4.66) of the same substance?
**A.** <3.60 pg/mL

**Q.** And the IL-4 ([1]; unlabelled patient, second line, first line <5.02)?
**A.** <1.22 pg/mL

**Q.** What about the IFN-γ ([1]; unlabelled patient, second line, first line <7.30) of the same substance?
**A.** <7.77 pg/mL

**Q.** What about the “CCL3 (MIP-1α)” value ([1]; unlabelled patient, second line, first line <34.82) of the same substance?
**A.** <45.08 pg/mL

**Q.** And the “symptoms in long haulers” value [2]?
**A.** alleviated or completely resolved symptoms
